Experimental data taken from article PMC8286599 (Gut Pathogens, 2021).
Where two headings read alike, the source gives them in different places.

Assays:
MDR-EAEC strains [1] = assay: Stability assay, cationic salts (MIC)
From the text: (§5) To explore the utility of phytochemicals as therapeutic molecules and their stability, individual phytochemicals were exposed to cationic salts, and different pH levels followed by analysing their MIC and MBC values against test strains as described earlier.
(§6) Subsequent to exposure to varied conditions, the antimicrobial activity of the phytochemicals was estimated by determining their MIC and MBC values against all the selected MDR strains of EAEC, S. Enteritidis, and S. Typhimurium as described earlier.

[2] = test system: MDR-S. Enteritidis strains; assay: Stability assay, pH (MIC)
From the text: as §5, §6

[3] = test system: MDR-S. Typhimurium strains; assay: MIC and MBC by broth microdilution with resazurin; assay type: cell-based, Salmonella Typhimurium; conditions: poultry droppings isolate
From the text: (§1) The characterised MDR field strains of EAEC (E1; E2; E3), S. Enteritidis (S1; S2; S3), and S. Typhimurium (ST1; ST2; ST3) maintained in the laboratory repository of Meat Safety Laboratory of ICAR-National Research Centre on Meat, Hyderabad re-validated using PCR assays were used to evaluate the in vitro antibacterial efficacy of phytochemicals. E. coli ATCC 25922 was used as the quality control strain.
(§2) The antimicrobial efficacy of identified phytochemicals against multi-drug resistant EAEC and NTS strains was determined by estimating the minimum inhibitory concentration (MIC) and minimum bactericidal concentrations (MBC).
(§3) Subsequent to the incubation period, resazurin dye (0.015 %) was added to all the wells to determine the dye reduction (pink) and thereby the bacterial inhibition.

MDR-EAEC strains [4] = assay: MIC and MBC by broth microdilution with resazurin; assay type: cell-based, enteroaggregative Escherichia coli; conditions: infant diarrhoea isolate
From the text: as §1, §2, §3

[5] = test system: MDR-S. Typhimurium strains; assay: Stability assay, pH (MIC)
From the text: as §5, §6

[6] = test system: MDR-S. Typhimurium strains; assay: Stability assay, cationic salts (MIC)
From the text: as §5, §6

[7] = Haemolytic assay, text summary; assay type: cell-based; conditions: sheep and human, sheep and human 'O' erythrocytes; read-out: Haemolysis
Procedure: (§4) The haemolytic assay of the individual phytochemical was performed by measuring the release of haemoglobin from sheep and human ‘O’ erythrocytes at 540 nm. The percentage of haemolysis was calculated as (Asample – APBS)/ (ATriton−X – APBS) ×100, in which Asample is the absorbance of phytochemical treatment, APBS is the absorbance of untreated control with PBS, and ATriton−X is the absorbance of lysed cells treated with Triton X-100 measured at 540 nm.

Haemolytic assay = assay type: cell-based; conditions: read-out: Haemolysis; for hemolysis at 0.5 X MIC: 0.50X MIC
Procedure: as §4

[8] = test system: MDR-S. Enteritidis strains; assay: Stability assay, cationic salts (MIC)
From the text: as §5, §6

MDR-EAEC strains [9] = assay: Stability assay, pH (MIC)
From the text: as §5, §6

[10] = test system: MDR-S. Enteritidis strains; assay: MIC and MBC by broth microdilution with resazurin; assay type: cell-based, Salmonella Enteritidis; conditions: poultry droppings isolate
From the text: as §1, §2, §3

[11] = human 'O' erythrocytes, Human RBCs

Cc1ccc(C(C)C)cc1O [Carvacrol, carvacrol]
0%: hemolysis at 0.25 X MIC (Haemolytic assay; sheep erythrocytes, Sheep RBCs)
2.66%: hemolysis at 0.25 X MIC (Haemolytic assay; [11])
0.5 µl/ml: MIC with cationic salt (MDR-EAEC strains [1]; 2 mM MgCl2, strain E1) | MIC at given pH ([2]; pH 4, strain S1) | MIC at given pH ([2]; pH 4, strain S2) | MIC at given pH ([2]; pH 4, strain S3) | MIC at given pH ([2]; pH 6, strain S1) | MIC at given pH ([2]; pH 6, strain S2) | MIC at given pH ([2]; pH 6, strain S3) | MIC at given pH ([2]; pH 8, strain S1) | MIC at given pH ([2]; pH 8, strain S2) | MIC at given pH ([2]; pH 8, strain S3) | MIC at given pH ([5]; pH 4, strain ST1) | MIC at given pH ([5]; pH 4, strain ST2) | MIC at given pH ([5]; pH 6, strain ST1) | MIC with cationic salt ([6]; 2 mM MgCl2, strain ST1) | MIC with cationic salt ([6]; 2 mM MgCl2, strain ST2) | MIC with cationic salt ([6]; 2 mM MgCl2, strain ST3) | MIC with cationic salt ([6]; 150 mM NaCl, strain ST1) | MIC with cationic salt ([6]; 150 mM NaCl, strain ST2) | MIC with cationic salt ([6]; 150 mM NaCl, strain ST3) | MIC with cationic salt ([8]; 2 mM MgCl2, strain S1) | MIC with cationic salt ([8]; 2 mM MgCl2, strain S2) | MIC with cationic salt ([8]; 2 mM MgCl2, strain S3) | MIC with cationic salt ([8]; 150 mM NaCl, strain S1) | MIC with cationic salt ([8]; 150 mM NaCl, strain S3) | MIC at given pH (MDR-EAEC strains [9]; pH 4, strain E1) | MIC at given pH (MDR-EAEC strains [9]; pH 4, strain E3) | MIC at given pH (MDR-EAEC strains [9]; pH 6, strain E1) | MIC at given pH (MDR-EAEC strains [9]; pH 6, strain E3) | MIC at given pH (MDR-EAEC strains [9]; pH 8, strain E1) | MIC at given pH (MDR-EAEC strains [9]; pH 8, strain E3)
1.25%: hemolysis at 1 X MIC (Haemolytic assay; sheep erythrocytes, Sheep RBCs)
57.2%: hemolysis at 2 X MIC (Haemolytic assay; [11])
11.2%: hemolysis at 1 X MIC (Haemolytic assay; [11])
4.88%: hemolysis at 0.5 X MIC (Haemolytic assay; [11])
57 to 82%: hemolysis [7]
86%: hemolysis at 8 X MIC (Haemolytic assay; sheep erythrocytes, Sheep RBCs)
92.7%: hemolysis at 8 X MIC (Haemolytic assay; [11])
82.1%: hemolysis at 4 X MIC (Haemolytic assay; [11])
two- to four-fold increase: Change of MIC values with cationic salts (MDR-EAEC strains [1]; 150 mM NaCl and 2 mM MgCl2, MDR-EAEC strains) | Change of MIC values at varied pH (MDR-EAEC strains [9]; pH 4.0 to 8.0, MDR-EAEC strains)
0.773%: hemolysis at 0.5 X MIC (Haemolytic assay; sheep erythrocytes, Sheep RBCs)
1.0 µl/ml: MIC with cationic salt (MDR-EAEC strains [1]; 2 mM MgCl2, strain E2) | MIC with cationic salt (MDR-EAEC strains [1]; 2 mM MgCl2, strain E3) | MIC with cationic salt (MDR-EAEC strains [1]; 150 mM NaCl, strain E1) | MIC with cationic salt (MDR-EAEC strains [1]; 150 mM NaCl, strain E2) | MIC with cationic salt (MDR-EAEC strains [1]; 150 mM NaCl, strain E3) | MBC (MDR-EAEC strains [4]; EAEC (E1)) | MIC at given pH ([5]; pH 4, strain ST3) | MIC at given pH ([5]; pH 6, strain ST2) | MIC at given pH ([5]; pH 6, strain ST3) | MIC at given pH ([5]; pH 8, strain ST2) | MIC at given pH ([5]; pH 8, strain ST3) | MIC with cationic salt ([8]; 150 mM NaCl, strain S2) | MIC at given pH (MDR-EAEC strains [9]; pH 4, strain E2) | MIC at given pH (MDR-EAEC strains [9]; pH 6, strain E2) | MIC at given pH (MDR-EAEC strains [9]; pH 8, strain E2)
75.7%: hemolysis at 2 X MIC (Haemolytic assay; sheep erythrocytes, Sheep RBCs)
0.12 µl/ml: MIC ([3]; S. Typhimurium (ST1)) | MIC ([3]; S. Typhimurium (ST2)) | MIC ([3]; S. Typhimurium (ST3)) | MIC ([10]; S. Enteritidis (S1))
0.25 µl/ml: MIC (MDR-EAEC strains [4]; EAEC (E1)) | MIC (MDR-EAEC strains [4]; EAEC (E3)) | MIC ([10]; S. Enteritidis (S2)) | MIC ([10]; S. Enteritidis (S3))
81.8%: hemolysis at 4 X MIC (Haemolytic assay; sheep erythrocytes, Sheep RBCs)
0.50 µl/ml: MBC ([3]; S. Typhimurium (ST1)) | MBC ([3]; S. Typhimurium (ST2)) | MBC ([3]; S. Typhimurium (ST3)) | MBC (MDR-EAEC strains [4]; EAEC (E2)) | MIC (MDR-EAEC strains [4]; EAEC (E2)) | MBC (MDR-EAEC strains [4]; EAEC (E3)) | MBC ([10]; S. Enteritidis (S1)) | MBC ([10]; S. Enteritidis (S2)) | MBC ([10]; S. Enteritidis (S3))
2.0 µl/ml: MIC at given pH ([5]; pH 8, strain ST1)
